Data published in patent US11440822B2, “Methods and uses of dissolved organic material fractions for binding metal ions” (priority 2016, dated 2022).

Tested on: Scenedesmus obliquus
Test: Toxicity of Cd to Scenedesmus obliquus cultures
Assay type: cell-based
Conditions: Cd(NO3)2
Description: Laboratory grown cultures of Scenedesmus obliquus were obtained from the Canadian Phycological Culture Center (CPCC) in Waterloo, Ontario. The cells were grown using a bold basal media (BBM) at standard light regimes (16:8 h light to dark) fixed light intensity of 90-100 μmol photons […] and fixed temperature of 21° C. constantly aerated in a growth chamber.
Four algal cultures were grown in the presence of varying levels of Cd: control (0 μL^−1 Cd); EC20 (19.5 μL^−1Cd); EC30 (46.4 μL^−1 Cd) and EC40 (78.8 μL^−1 Cd) starting at 1 million cells per mL for Replicate 1 and 2 million cells per mL for Replicate 2. The cells were harvested in early stationary phase for further analysis.

O=[N+]([O-])[O-].O=[N+]([O-])[O-].[Cd+2] [Cd, Cd(NO3)2]
toxicity of Cd, EC20: 19.5 μL^−1Cd | toxicity of Cd, EC30: 46.4 μL^−1 Cd | toxicity of Cd, EC40: 78.8 μL^−1 Cd
